The nature of series [1]: Rat liver microsome stability. It is filed as in vitro ADME. The settings on record: rat liver microsomes, 37° C., read-out: Microsome Stability T1/2. As for the experimental part:
Next, the microsome stability in rats was determined for select compounds from Table 5. Test compounds are incubated with rat liver microsomes supplemented with co-factors at 37° C. Typical conditions were a compound concentration of 1 μM and 5 sampling time-points (0, 5, 15, 30 and 45 minutes), in duplicate. At each time-point, the reactions were terminated by the addition of organic solvent. The samples were centrifuged and the parent compound concentration was evaluated by LC-MS/MS measurements. Control compounds were included with well-established stability when incubated with rat microsomes. Multiple time points were used to determine % parent compound remaining at each time point and to calculate the Tiu2 for each compound in rat liver microsomes. A higher T1/2 indicates increased compound stability in microsomes.
A general note: Microsomes from liver hold many membrane-bound enzymes, among them those of drug oxidation.

Another series concerns Hsp70. The experiment in a line: HSF1 target gene transcript expression qPCR in C4-2 cells, Hsp70. The series is classed as cell-based. The conditions noted are these: Homo sapiens, 2 hours then SNX-2112 (100 nM) 5 hr, vs GAPDH and DMSO. As for the experimental part:
(§1) Next, the change in heat shock protein gene expression in C4-2 prostate cancer cells was determined. C4-2 prostate cancer cells were grown in RMPI-1640 (no L-glutamine, Gibco 21870076) supplemented with 10% fetal bovine […] (non-heat-inactivated, Cytiva Hyclone SH30071.03). To quantitatively measure the inhibition of HSF1 activity in C4-2 prostate cancer cells, compounds or DMSO were added to triplicate C4-2 cell cultures for 2 hours. HSF1 activity was then stimulated with the Hsp90 inhibitor SNX-2112 (100 nM) for an additional 5 hr at 37° C. in the presence of HSF1 degrader compounds or DMSO. Total RNA was extracted, converted to cDNA and used in qPCR assays to quantify the change in HSF1 target gene transcript expression (HSPA4L equals Hsp70, HSPB1 equals Hsp27 and DNAJB1 equals Hsp40) as compared to GAPDH internal control gene, and then compared to DMSO negative control.
(In qPCR the cycle at which signal appears reflects the starting amount.)

In series [2] the test system is C4-2 prostate cancer cells. The series is described as follows: C4-2 cell proliferation, Cell Titre Glo. It is filed as cell-based. The settings on record: Homo sapiens, 48-hour period, 9-point dilution series, read-out: Cell Viability IC50. As for the experimental part:
Next, cell viability of C4-2 prostate cancer cells was determined. C4-2 prostate cancer cells were grown in RMPI-1640 (no L-glutamine, Gibco 21870076) supplemented with 10% fetal bovine […] (non-heat-inactivated, Cytiva Hyclone SH30071.03). […] A 9-point dilution series was used to assess the ability of each compound to inhibit the growth of C4-2 prostate cancer cells over a 48-hour period, as compared to negative control solvent, DMSO. Cell proliferation was measured by the Cell Titre Glo assay using 384 well microtiter plate reader to quantitate luminescence. The IC50 was determined from the values obtained.

In series [3] the target is T1, purified recombinant human HSF1 (HSF1 DNA binding domain) (Homo sapiens, UniProt Q00613).
T1 sequence (Q00613 15-120): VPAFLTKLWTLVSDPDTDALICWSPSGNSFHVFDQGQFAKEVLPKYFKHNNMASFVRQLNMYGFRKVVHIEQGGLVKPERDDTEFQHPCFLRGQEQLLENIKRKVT
The series is described as follows: Melting temperature of HSF1 DBD with HSF1 degrader compounds (Sypro orange). The settings on record: 12.5 micromolar compound, 5 micromolar HSF1 DBD, compared to DMSO; read-out: ΔTm (° C.). As for the experimental part:
The melting temperature (ΔTm) for purified recombinant human HSF1 (HSF1 DNA binding domain) was determined in the presence of HSF1 degrader compounds shown in Table 5 and compared to the solvent DMSO. Sypro orange dye was added to the HSF1 DBD (5 micromolar final concentration) in buffer, mixed and distributed to wells in 384 well microtiter plates. HSF1 degrader compound (12.5 micromolar) or DMSO solvent was added to three replicate wells per compound concentration, mixed and plates loaded into a Quant Studio thermnocycler and run on a temperature gradient from 25° C. to 85° C. with increments of 0.5° C. steps. Melting curves were obtained and analyzed using the ThermnoFisher Shift Software 1.4 fitted with a Boltzmann equation to determine the change in melting temperature of the protein in the presence of DMSO as compared to compound. The difference in the melting temperature under these two conditions was assigned as the change in melting temperature of ΔTm.

Another series relates to DNAJB1 equals Hsp40. The experiment in a line: HSF1 target gene transcript expression qPCR in C4-2 cells, Hsp40. It is filed as cell-based. The settings on record: Homo sapiens, 2 hours then SNX-2112 (100 nM) 5 hr, vs GAPDH and DMSO. As for the experimental part:
as §1

Series [4] deals with T2, recombinant HSF1 DNA-binding domain (DBD) (Homo sapiens, UniProt Q00613).
T2 sequence (Q00613 15-120): T1 sequence (Q00613 15-120)
The experiment in a line: Differential Scanning Fluorimetry (DSF), HSF1 DBD melting temperature. The conditions noted are these: 5 μM HSF1 DBD, 25PM Compound, positive = stabilizes, negative = destabilizes HSF1.

The subject of series [5] is C4-2 malignant prostate cancer cells vs BPH-1 non-tumorigenic prostate cells. The experiment in a line: AlamarBlue cell viability, C4-2 vs BPH-1. The series is classed as cell-based, human. The settings on record: FIG. 6A; for viability of C4-2 compared to BPH-1: 96 hours, AlamarBlue assay; for potency compared to Compound 0017: inhibition of metastatic prostate cancer cell growth. As for the experimental part: The cells were treated for 96 hours with the indicated concentrations of the compounds of the disclosure and cell viability was measured with the AlamarBlue assay. FIG. 6B illustrates the results of Compound 0017 used in a 7-week Maximal Tolerated Dose (MTD) study conducted in mice (3 mice identified as 118, 119 and 120). […] After sacrificing the mice on the last day of the administration, mouse liver and heart tissue was isolated, messenger RNA extracted and the transcript abundance of the HSF1 target gene, Hsp70, was evaluated by qRT-PCR relative to the internal RNA control, GAPDH. The results of the vehicle-treated versus Compound 0017-treated experiments were compared.
Based on the chemical structure of Compound 0017 and its activity, and of other HSF1-interacting chemicals identified in the screen, additional derivatives were designed, synthesized and evaluated for binding to HSF1 and preferential inhibition of metastatic prostate cancer cells (C4-2) versus benign prostate cells (BPH-1).
In general terms: Resazurin is reduced to fluorescent resorufin, in cell work by metabolically active cells.

What is called IC50 is the concentration that gives 50% inhibition. A word on the ΔTm: it is the change in melting temperature against a reference sample. As for `O=C(Nc1ccc(F)cc1)Nc1ccc(Cl)c([N+](=O)[O-])c1` [Compound 17, 1-(4-chloro-3-nitrophenyl)-3-(4-fluorophenyl)urea], in series [1], the half-life at 1 μM came to 1.54 h. Besides, the figures for the mrna remaining at 10 µM with Hsp70 and with DNAJB1 equals Hsp40 were 30.4% and 23.6%, respectively. The IC50 in series [2] is 5610 nM. The thermal shift (ΔTm) at 12.5 µM in series [3] worked out at 3.69 °C.
Take `O=C(Nc1ccc(F)cc1)Nc1ccc(Cl)c(S(=O)(=O)C(F)(F)F)c1` [Compound 0054, 1-[4-chloro-3-(trifluoromethylsulfonyl)phenyl]-3-(4-fluorophenyl)urea]: the ΔTm at 25 µM in series [4] (Table 1) came out at 2.9 °C. Also, in series [5], the “viability of C4-2 compared to BPH-1” value is on record as “preferentially inhibit the viability” and the “potency compared to Compound 0017” value is “increased potency compared to Compound 0017”.
As for `O=C(Nc1ccc(F)cc1)Nc1ccc(Cl)c(S(=O)(=O)C(F)(F)F)c1` [Compound 54, 1-[4-chloro-3-(trifluoromethylsulfonyl)phenyl]-3-(4-fluorophenyl)urea], the mrna remaining at 10 µM is 23% with Hsp70 and 37% in the series on DNAJB1 equals Hsp40. For the same molecule, the IC50 in series [2] is 3180 nM. For the same molecule, in series [3], the ΔTm at 12.5 µM stood at 2.1 °C.
For `O=c1c(Nc2ccc(F)cc2)c(Nc2ccc(Cl)c(C(F)(F)F)c2)c1=O` [Compound 0064, 3-[4-chloro-3-(trifluoromethyl)anilino]-4-(4-fluoroanilino)cyclobut-3-ene-1,2-dione], in series [4] (Table 1), the ΔTm at 25 µM came out at 2.3 °C. Also, in series [5], the “viability of C4-2 compared to BPH-1” value is listed as “preferentially inhibit the viability” and the “potency compared to Compound 0017” value is recorded as “increased potency compared to Compound 0017”.
In the case of `N#Cc1ccc(NC(=O)Nc2ccc(Cl)c(C(F)(F)F)c2)cc1` [Compound 242, 1-(4-chloro-3-(trifluoromethyl)phenyl)-3-(4-cyanophenyl)urea], the half-life at 1 μM in series [1] was 14.9 h. The mrna remaining at 10 µM with Hsp70 was found to be 55%; in the series on DNAJB1 equals Hsp40 it was 71%. Further, the IC50 in series [2] stood at 1980 nM. The ΔTm at 12.5 µM in series [3] was 2.62 °C.
Taken in the same sequence, the figures for `N#Cc1ccc(NC(=O)Nc2ccc(Cl)c(S(=O)(=O)C(F)(F)F)c2)cc1` [Compound 243, 1-(4-chloro-3-((trifluoromethyl)sulfonyl)phenyl)-3-(4-cyanophenyl)urea] were 2.56 h, 38.5%, 39.5%, 1760 nM and 1.77 °C.
On to `N#Cc1ccc(NC(=O)Nc2ccc3c(c2)S(=O)(=O)C=C3)cc1` [Compound 244, 1-(4-cyanophenyl)-3-(1,1-dioxidobenzo[b]thiophen-6-yl)urea], for which the half-life at 1 μM in series [1] was 2.58 h. Further, in series [2], the IC50 came to 2190 nM. The ΔTm at 12.5 µM in series [3] was 2.11 °C.
In the case of `N#Cc1ccc(NC(=O)Nc2ccc3nsnc3c2)cc1` [Compound 245, 1-(benzo[c][1,2,5]thiadiazol-5-yl)-3-(4-cyanophenyl)urea], the results for the mrna remaining at 10 µM in the series with Hsp70 and in the series with DNAJB1 equals Hsp40 were 36% and 39%, respectively. Further, in series [2], the IC50 was over 10000 nM. Also, the ΔTm at 12.5 µM in series [3] amounted to 2.74 °C.
`COc1cc(NC(=O)Nc2ccc(Cl)c(C(F)(F)F)c2)ccc1C#N` [Compound 247, 1-(4-chloro-3-(trifluoromethyl)phenyl)-3-(4-cyano-3-methoxyphenyl)urea]: the mrna remaining at 10 µM in the series on Hsp70 was 63%; in the series with DNAJB1 equals Hsp40, 73%. The IC50 in series [2] is 2400 nM. The ΔTm at 12.5 µM in series [3] was determined as 2.8 °C.
Turning to `N#Cc1ccc(NC(=O)Nc2ccc3c(c2)S(=O)(=O)C=C3)cc1C(F)(F)F` [Compound 256, 1-(4-cyano-3-(trifluoromethyl)phenyl)-3-(1,1-dioxidobenzo[b]thiophen-6-yl)urea], in series [1], the half-life at 1 μM is 1.23 h. Also, the IC50 in series [2] came out at 3470 nM. Besides, the ΔTm at 12.5 µM in series [3] is 1.9 °C.
For the molecule `N#Cc1ccc(NC(=O)Nc2ccc(Cl)c(S(=O)(=O)C(F)(F)F)c2)cc1C(F)(F)F` [Compound 257, 1-(4-chloro-3-((trifluoromethyl)sulfonyl)phenyl)-3-(4-cyano-3-(trifluoromethyl)phenyl)urea], the half-life at 1 μM in series [1] is 6.16 h. Further, the results for the mrna remaining at 10 µM in the series on Hsp70 and in the series on DNAJB1 equals Hsp40 were 20% and 7%, respectively. The IC50 in series [2] amounted to 2150 nM. Further, in series [3], the ΔTm at 12.5 µM is 1.62 °C.
For `N#Cc1ccc(NC(=O)Nc2ccc(Cl)c(C(F)(F)F)c2)cc1C(F)(F)F` [Compound 258, 1-(4-chloro-3-(trifluoromethyl)phenyl)-3-(4-cyano-3-(trifluoromethyl)phenyl)urea], the half-life at 1 μM in series [1] stood at 10.6 h. Further, the results for the mrna remaining at 10 µM with Hsp70 and with DNAJB1 equals Hsp40 were 60% and 65%, respectively. In addition, the IC50 in series [2] was found to be 1660 nM. Besides, the ΔTm at 12.5 µM in series [3] came out at 2.26 °C.
Take `N#Cc1ccc(NC(=O)Nc2ccc3c(c2)S(=O)(=O)C=C3)cn1` [Compound 265, 1-(6-cyanopyridin-3-yl)-3-(1,1-dioxidobenzo[b]thiophen-6-yl)urea]: the mrna remaining at 10 µM in the series with Hsp70 amounted to 88%; in the series on DNAJB1 equals Hsp40, 77%. Besides, in series [2], the IC50 was found to be 9690 nM. In series [3], the thermal shift (ΔTm) at 12.5 µM was 0.84 °C.
With `N#Cc1ccc(NC(=O)Nc2ccc3c(c2)S(=O)(=O)C=C3)nc1` [Compound 266, 1-(5-cyanopyridin-2-yl)-3-(1,1-dioxidobenzo[b]thiophen-6-yl)urea], the mrna remaining at 10 µM with Hsp70 is 83%; in the series with DNAJB1 equals Hsp40, 93%. Moreover, the IC50 in series [2] is 810 nM. For the same molecule, in series [3], the ΔTm at 12.5 µM is -0.64 °C.
In the case of `N#Cc1ccc(NC(=O)Nc2ccc(Cl)c(S(=O)(=O)C(F)(F)F)c2)c(CCN2CCOCC2)c1` [Compound 298, 1-(4-chloro-3-((trifluoromethyl)sulfonyl)phenyl)-3-(4-cyano-2-(2-morpholinoethyl)phenyl)urea], the half-inhibitory concentration (IC50) in series [2] was over 10000 nM. For the same molecule, the ΔTm at 12.5 µM in series [3] worked out at 1 °C. The ΔTm at 25 µM in series [4] (Table 3) was determined as 2.28 °C.
As to `N#Cc1ccc(NC(=O)Nc2ccc(Cl)c(S(=O)(=O)C(F)(F)F)c2)c(OCCN2CCOCC2)c1` [Compound 299, 1-(4-chloro-3-((trifluoromethyl)sulfonyl)phenyl)-3-(4-cyano-2-(2-morpholinoethoxy)phenyl)urea], the IC50 in series [2] was over 10000 nM. The ΔTm at 12.5 µM in series [3] was 0.2 °C. Moreover, the ΔTm at 25 µM in series [4] (Table 3) is 0.49 °C.

(Values after US20240317727A1 (Duke University, priority 2018, published 2024).)
